{"source": "patent US11059842B2", "about": "“Monosaccharide amine and 3-nitro-2-phenyl-2H-chromene based inhibitors of glucose kinases” (UNIVERSITY OF SOUTH CAROLINA, priority 2019, dated 2021)", "key": {"TcGlcK [1]": {"molecular_target": "T1, TcGlcK (Trypanosoma cruzi (strain CL Brener), UniProt Q4E4E1)", "T1 sequence (Q4E4E1 1-376)": "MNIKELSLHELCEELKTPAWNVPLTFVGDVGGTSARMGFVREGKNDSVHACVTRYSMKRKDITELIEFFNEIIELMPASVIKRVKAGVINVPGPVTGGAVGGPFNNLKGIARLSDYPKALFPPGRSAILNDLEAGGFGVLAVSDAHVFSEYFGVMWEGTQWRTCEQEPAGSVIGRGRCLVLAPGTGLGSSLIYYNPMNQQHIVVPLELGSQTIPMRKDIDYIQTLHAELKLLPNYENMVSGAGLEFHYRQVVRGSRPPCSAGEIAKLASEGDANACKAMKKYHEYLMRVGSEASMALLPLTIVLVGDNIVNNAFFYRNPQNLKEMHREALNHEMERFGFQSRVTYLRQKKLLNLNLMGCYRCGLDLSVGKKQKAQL", "assay": "TcGlcK Michaelis-Menten kinetics and substrate range", "type": "biochemical", "conditions": "substrate; triplicate runs", "description": "(§1) D-Glucose was also tested as a control with alternative substrates. The protein expression work for TcGlcK and HsHxKIV were each made possible through the E. coli strain BL21(DE3) system. Purification of each enzyme was performed through cobalt-NTA chromatography followed by size-exclusion chromatography; assessment of purity was performed by SDS-PAGE. In enzymatic assays, a time-optimum (TOPT) was determined to be 120 seconds for TcGlcK and 600 seconds for HsHxKIV; all assays were run at room temperature. A general reaction scheme included a first reaction in which the monosaccharide, ATP, and Mg^2+ react with the enzyme, e.g., TcGlcK, forming a hexose-phosphate and ADP. In a second reaction, hexose-phosphate with the assistance of glucose-6-phosphate dehydrogenase (G6PDH) and NADP^+ was converted to the lactone form of the hexose-phosphate and NADPH. Fluorescence of NADPH was monitored using a fluorescence microplate reader with […] wavelengths of 340 nm and 485 nm, respectively.\n(§2) FIG. 4 and FIG. 5 present typical Michaelis-Menten enzyme kinetic plots for D-glucose. As shown, the NADP^+ to NADPH turnover rate is a function of [D-glucose] & [ATP] for TcGlcK (FIG. 4) and HsHxKIV (FIG. 5) absent inhibition. Michaelis-Menten constant (KM) values, which were used as the set final assay concentrations of substrates D-glucose and ATP for the primary screens, were determined for both TcGlcK and HsHxKIV in triplicate runs. The KM values for TcGlcK with respect to D-glucose and ATP were 0.40 mM and 0.34 mM, respectively. The KM values for HsHxKIV with respect to D-glucose and ATP were 43 mM and 0.20 mM, respectively.\nAll phosphorylated hexoses were shown getting converted into their corresponding products by G6PDH, in abundant quantities through a 30-second time frame. This permitted the standard TcGlcK […] assay, which was timed for […], to be used as an assay to analyze alternative substrates."}, "HsHxKIV [2]": {"molecular_target": "T2, HsHxKIV (Homo sapiens (Human), UniProt P35557)", "T2 sequence (P35557 whole entry)": "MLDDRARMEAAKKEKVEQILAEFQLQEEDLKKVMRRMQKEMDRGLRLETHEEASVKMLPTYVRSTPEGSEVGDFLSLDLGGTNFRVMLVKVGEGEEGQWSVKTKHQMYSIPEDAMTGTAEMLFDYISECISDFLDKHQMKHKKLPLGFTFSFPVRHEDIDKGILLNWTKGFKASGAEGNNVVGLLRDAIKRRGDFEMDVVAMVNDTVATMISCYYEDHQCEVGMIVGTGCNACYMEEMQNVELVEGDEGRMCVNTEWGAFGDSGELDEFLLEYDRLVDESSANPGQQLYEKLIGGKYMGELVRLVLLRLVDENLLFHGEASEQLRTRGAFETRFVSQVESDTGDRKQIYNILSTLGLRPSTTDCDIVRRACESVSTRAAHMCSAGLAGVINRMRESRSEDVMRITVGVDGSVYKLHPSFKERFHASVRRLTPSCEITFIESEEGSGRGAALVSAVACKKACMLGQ", "assay": "HsHxKIV Michaelis-Menten kinetics", "type": "biochemical", "conditions": "substrate; triplicate runs", "description": "as §1\nFIG. 4 and FIG. 5 present typical Michaelis-Menten enzyme kinetic plots for D-glucose. […] Michaelis-Menten constant (KM) values, which were used as the set final assay concentrations of substrates D-glucose and ATP for the primary screens, were determined for both TcGlcK and HsHxKIV in triplicate runs. […]"}, "HsHxKIV [3]": {"molecular_target": "T2, HsHxKIV", "assay": "Primary assay screen of HsHxKIV, normalized percent inhibition (Example 2)", "type": "biochemical", "conditions": "triplicate", "description": "(§3) Primary assay screens of TcGlcK, LbGlcK, and HsHxKIV against the 3-nitro-2-phenyl-2H-chromene-based inhibitors compound nos. 19-22 were carried out. Compound 1, Benzoyl glucosamine (BENZ-GlcN or simply “BENZ”) and carboxybenzyl glucosamine (CBZ-GlcN or simply “CBZ”) were both used as controls due to their known inhibition against TcGlcK. LbGlcK was chosen to be tested against these compounds due to its 44% protein sequence similarity to TcGlcK.\n(§4) All screens were done in triplicate and were analyzed using normalized percent inhibition (NPI) calculations. NPI calculations rely on positive and negative assay controls within the screen to account for any fluctuations in the fluorescence measurements.\n(§5) The NPI for a compound to be considered a “hit” against TcGlcK required a value exceeding 60.5% inhibition in the primary screen. All four compounds ([…]) qualified as hits based off of this parameter. LbGlcK required compounds to be above 12.6% inhibition in its primary screen; all four compounds were also qualified as hits."}, "TcGlcK [4]": {"molecular_target": "T1, TcGlcK", "assay": "Primary assay screen of TcGlcK, normalized percent inhibition (Example 2)", "type": "biochemical", "conditions": "triplicate", "description": "as §3, §4, §5"}, "[5]": {"molecular_target": "Trypanosoma cruzi glucokinase (TcGlcK) (Trypanosoma cruzi (strain CL Brener), UniProt Q4E4E1)", "sequence (Q4E4E1 1-376)": "as the sequence (Q4E4E1 1-376) above", "type": "biochemical", "conditions": "for TcGlcK Inh20 (%): percentage of inhibition at 20 μM of the compound, N = 1", "description": "as §1, with “In enzymatic assays, a time-optimum (TOPT) was determined to be 120 seconds for TcGlcK and 600 seconds for HsHxKIV; all assays were run at room temperature.” left out\nMichaelis-Menten constant (KM) values, which were used as the set final assay concentrations of substrates D-glucose and ATP for the primary screens, were determined for both TcGlcK and HsHxKIV in triplicate runs. […]\nThe cutoff percentage was calculated by using normalized percent inhibition that took into consideration the positive and negative controls of the fluorescence readout from a fluorescence microplate reader. In addition, an unconfirmed hit was selected if the activity measurement was three standard deviations away from the mean of the positive controls."}, "[6]": {"test_system": "glucose-6-phosphate dehydrogenase (G6PDH)", "assay": "G6PDH confirmatory assay (coupling enzyme counter-screen)", "type": "biochemical", "conditions": "20 μM compound; quadruplicate", "description": "The 16 compounds showing substantial inhibition against TcGlcK at compound concentrations of 20 μM were then examined in a confirmatory assay in which the amino sugar analogues were at a concentration of 20 μM and were tested against the assay's only coupling enzyme, G6PDH, to verify enzyme activity; the assay was performed in quadruplicate. […] These confirmed hits included representatives from all three monosaccharide scaffolds tested (i.e., D-GlcN, D-ManN, and D-GalN)."}, "TcGlcK [7]": {"molecular_target": "T1, TcGlcK", "type": "biochemical", "description": "as §1, with “In enzymatic assays, a time-optimum (TOPT) was determined to be 120 seconds for TcGlcK and 600 seconds for HsHxKIV; all assays were run at room temperature.” left out"}, "[8]": {"molecular_target": "Homo sapiens hexokinase IV (HsHxKIV) (Homo sapiens (Human), UniProt P35557)", "sequence (P35557 whole entry)": "as the sequence (P35557 whole entry) above", "assay": "HsHxKIV enzyme-inhibition screening assay (Example 1)", "type": "biochemical", "conditions": "20 μM compound; N = 1", "description": "as §1, §2"}, "[9]": {"test_system": "Leishmania braziliensis glucokinase (LbGlcK)", "assay": "Primary assay screen of LbGlcK, normalized percent inhibition (Example 2)", "type": "biochemical", "conditions": "triplicate", "description": "as §3, §4, §5"}, "TcGlcK [10]": {"molecular_target": "T1, TcGlcK", "conditions": "from D'Antonio, et al (2015); cited from earlier work"}, "[11]": {"test_system": "T. cruzi (Tulahuen strain) infective form (trypomastigote and amastigote life stages) co-cultured in NIH-3T3 fibroblasts", "assay": "T. cruzi infective form growth inhibition in NIH-3T3 fibroblasts", "type": "cell-based, Trypanosoma cruzi", "conditions": "Tulahuen strain infective form in NIH-3T3 fibroblasts; N = 3 (Amphotericin B control: 6 replicates)", "description": "The curve and the IC50 were calculated from measurements determined in triplicate and expressed as percent growth inhibition of the T. cruzi parasite infection of mammalian cells.\nCompounds were further screened against the T. cruzi (Tulahuen strain) infective form (trypomastigote and amastigote life stages) co-cultured in NIH-3T3 fibroblasts to establish IC50 values. Assays were performed in triplicate.\nThe single dose in vitro study included administration of the compounds in 80 μM inhibitor concentrations (N=3). Amphotericin B was used as a control."}, "T. brucei": {"test_system": "T. brucei", "assay": "T. brucei in vitro screen", "type": "cell-based", "conditions": "Trypanosoma brucei; average; concentrations up to 10 μM, N=3", "description": "Compounds 19-31 were screened against T. brucei. The single dose in vitro study included administration of the compounds in increasing concentrations up to 10 μM (N=3 for each compound concentration value). Media and T. bricei+0.5% SDS were used as control."}, "[12]": {"test_system": "T. cruzi (Tulahuen strain) infective form (trypomastigote and amastigote life stages) co-cultured in NIH-3T3 fibroblasts", "conditions": "literature / previously measured values; infective form in NIH-3T3 fibroblasts; cited from earlier work"}}, "note": "Several values for one entry are separate records, joined by “and”; a condition that tells them apart may be missing. Equal entries are not always repeated. Where two headings read alike, the source gives them in different places."}
{"compound": "Nc1ncnc2c1ncn2[C@@H]1O[C@H](COP(=O)(O)OP(=O)(O)OP(=O)(O)O)[C@@H](O)[C@H]1O", "note": "[ATP]", "values": [{"measurement": "Km", "setting": "TcGlcK [1]", "result": 340, "unit": "µM"}, {"measurement": "Km", "setting": "HsHxKIV [2]", "result": 200, "unit": "µM"}]}
{"compound": "O=C(NC1C(O)OC(CO)C(O)C1O)OCc1ccccc1", "note": "(centres unmarked) [CBZ-GlcN, carboxybenzyl glucosamine, reference compound]", "values": [{"measurement": "NPI (%) HsHxKIV", "setting": "HsHxKIV [3]", "result": 15.0, "unit": "%"}, {"measurement": "NPI (%) TcGlcK", "setting": "TcGlcK [4]", "result": 100, "unit": "%"}, {"measurement": "TcGlcK Inh20 (%)", "setting": "[5]", "result": 92, "unit": "%"}]}
{"compound": "O=C(N[C@H]1C(O)O[C@H](CO)[C@@H](O)[C@@H]1O)c1ccccc1", "note": "(some centres unmarked) [Compound 1, Benzoyl glucosamine]", "values": [{"measurement": "NPI (%) HsHxKIV", "setting": "HsHxKIV [3]", "result": 9.30, "unit": "%"}, {"measurement": "NPI (%) TcGlcK", "setting": "TcGlcK [4]", "result": 100, "unit": "%"}, {"measurement": "G6PDH Inh20 (%)", "setting": "[6]", "result": "0.5 ± 1.0", "unit": "%"}, {"measurement": "Ki stronger than compound 5 by magnitude", "setting": "TcGlcK [7]; relative to compound 5", "result": 4.3, "unit": "fold"}, {"measurement": "HsHxKIV Inh20(%)", "setting": "[8]", "result": 39, "unit": "%"}, {"measurement": "NPI (%) LbGlcK", "setting": "[9]", "result": 27.2, "unit": "%"}, {"measurement": "Ki", "setting": "TcGlcK [10]", "result": 32, "unit": "µM"}, {"measurement": "TcGlcK Inh20:HsHxKIV Inh20 ratio", "setting": "[5]; higher values indicate more selective towards TcGlcK", "result": 1.65}, {"measurement": "TcGlcK Inh20 (%)", "setting": "[5]", "result": "65% and 64.7%"}]}
{"compound": "O=C(N[C@H]1C(O)O[C@H](CO)[C@@H](O)[C@@H]1O)c1cc2ccccc2o1", "note": "(some centres unmarked) [Compound 5]", "values": [{"measurement": "G6PDH Inh20 (%)", "setting": "[6]", "result": "0.0 ± 0.0", "unit": "%"}, {"measurement": "mode of TcGlcK inhibition", "setting": "TcGlcK [7]", "result": "competitive inhibition"}, {"measurement": "Ki", "setting": "TcGlcK [7]; N = 3", "result": "139 ± 35", "unit": "µM"}, {"measurement": "HsHxKIV Inh20(%)", "setting": "[8]", "result": 25, "unit": "%"}, {"measurement": "TcGlcK Inh20 (%)", "setting": "[5]", "result": "31% and 31.2%"}, {"measurement": "IC50", "setting": "[11]", "result": 27.2, "unit": "µM"}]}
{"compound": "O=[N+]([O-])C1=Cc2cc(Br)cc(Br)c2O[C@H]1c1c(Cl)cccc1Cl", "note": "[Compound 19]", "values": [{"measurement": "IC50", "setting": "T. brucei", "result": 0.902, "unit": "µM"}, {"measurement": "NPI (%) HsHxKIV", "setting": "HsHxKIV [3]", "result": 82.1, "unit": "%"}, {"measurement": "NPI (%) TcGlcK", "setting": "TcGlcK [4]", "result": 62.3, "unit": "%"}]}
{"compound": "O=[N+]([O-])C1=Cc2cc(Br)ccc2O[C@H]1c1ccccc1Cl", "note": "[Compound 20]", "values": [{"measurement": "IC50", "setting": "T. brucei", "result": 0.862, "unit": "µM"}, {"measurement": "NPI (%) HsHxKIV", "setting": "HsHxKIV [3]", "result": 64.7, "unit": "%"}, {"measurement": "NPI (%) TcGlcK", "setting": "TcGlcK [4]", "result": 89.5, "unit": "%"}]}
{"compound": "O=[N+]([O-])C1=Cc2ccccc2O[C@H]1c1c(Cl)cccc1Cl", "note": "[Compound 22]", "values": [{"measurement": "NPI (%) HsHxKIV", "setting": "HsHxKIV [3]", "result": 66.0, "unit": "%"}, {"measurement": "NPI (%) TcGlcK", "setting": "TcGlcK [4]", "result": 69.5, "unit": "%"}]}
{"compound": "O=C(Cn1ccnc1[N+](=O)[O-])NCc1ccccc1", "note": "[benznidazole]", "values": [{"measurement": "IC50", "setting": "[12]", "result": "1.12 ± 0.01", "unit": "µM"}]}
